Key:
Format in all cases: in vitro ADME
[1] = biological target: T1, CYP2C19 (Homo sapiens, UniProt P33261); test: Assessment of time-dependent inhibition of CYP2C19 in HLMs; settings: 10 μM ECH; incubation 0-30 min
T1 construct: tissue PrimeTox M10000.201800; host or cells: pooled human liver microsomes (50 donors)
Procedure: (§1) After the first incubation, an aliquot (20 μL) was transferred to another incubation tube, added probe substrates and start the reaction by an NADPH-generating system. After incubation for 0, 5, 10, 15, and 30 min, the corresponding metabolites were determined by HPLC-MS.

[2] = biological target: T2, CYP2D6 (Homo sapiens, UniProt P10635); test: CYP2D6 inhibition in HLMs, dextromethorphan O-demethylation probe reaction; settings: HLM; even in 100 μM concentrations
T2 construct: Phenotyping experiments were conducted by probe reactions of eight HLMs CYPs; tissue PrimeTox M10000.201800; host or cells: pooled human liver microsomes (50 donors)
T2 sequence (P10635 whole entry): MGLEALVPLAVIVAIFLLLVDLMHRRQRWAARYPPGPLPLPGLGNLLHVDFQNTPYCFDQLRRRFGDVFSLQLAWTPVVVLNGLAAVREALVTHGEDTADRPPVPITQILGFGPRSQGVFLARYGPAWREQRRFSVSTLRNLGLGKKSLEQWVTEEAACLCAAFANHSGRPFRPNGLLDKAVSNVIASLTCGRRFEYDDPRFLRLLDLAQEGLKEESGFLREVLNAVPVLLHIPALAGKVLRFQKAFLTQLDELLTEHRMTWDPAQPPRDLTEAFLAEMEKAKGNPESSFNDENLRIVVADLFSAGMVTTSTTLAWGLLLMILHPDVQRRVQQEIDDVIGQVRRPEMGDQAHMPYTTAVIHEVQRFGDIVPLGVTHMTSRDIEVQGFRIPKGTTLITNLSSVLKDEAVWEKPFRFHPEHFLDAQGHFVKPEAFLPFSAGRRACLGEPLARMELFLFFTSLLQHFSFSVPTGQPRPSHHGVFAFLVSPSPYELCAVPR
Procedure: (§2) Eight positive controls were used for different CYPs: 10 μM furafylline for CYP1A2, 50 μM clomethiazole for CYP2E1, 50 μM tranylcypromine for CYP2C19, 1 μM ketoconazole for CYP3A4, 10 μM tranylcypromine for CYP2A6, 5 μM montelukast for CYP2C8, 10 μM sulfaphenazole for CYP2C9, and 10 μM quinidine for CYP2D6. […] The reaction was initiated by adding a newly prepared NADPH generating system, maintained at 37 °C for 30 min, and then terminated by the addition of acetonitrile. The incubation conditions were optimized to assure that the reaction was linear with time and protein concentration. Blank HLMs were incubated as Control. The supernatant was obtained after centrifugation at 14000 r/min, 15 min for LC-MS analysis.
(§3) The quantification for the corresponding metabolites was performed using a validated single LC/MS/MS run at an Ultimate 3000 HPLC system and a TSQ Quantis™ triple quadrupole mass spectrometer equipped with a heated electrospray ionization (ESI) source (Thermo Fisher, USA). The mobile phase was consisted of solvent A (0.01% acetic acid and 5 mmol/L ammonium acetate) and solvent B (methanol-acetonitrile,1:1, v/v) according to the following gradient: 0-0.5 min, B 2%; 0.5-4.0 min, B 2 to 45%; 4.0-6.5 min, B 45 to 60%; 6.5-6.8 min, B 60 to 80%; 6.8-7.2 min, B 80%; 7.2-7.5 min, B 80 to 2%; 7.5-10.0 min, B 2%. […]

[3] = biological target: T3, CYP3A4 (Homo sapiens, UniProt P08684); test: Time-dependent inhibition and inactivation kinetics of CYP3A4 in HLMs
T3 construct: tissue PrimeTox M10000.201800; host or cells: pooled human liver microsomes (50 donors)
T3 sequence (P08684 whole entry): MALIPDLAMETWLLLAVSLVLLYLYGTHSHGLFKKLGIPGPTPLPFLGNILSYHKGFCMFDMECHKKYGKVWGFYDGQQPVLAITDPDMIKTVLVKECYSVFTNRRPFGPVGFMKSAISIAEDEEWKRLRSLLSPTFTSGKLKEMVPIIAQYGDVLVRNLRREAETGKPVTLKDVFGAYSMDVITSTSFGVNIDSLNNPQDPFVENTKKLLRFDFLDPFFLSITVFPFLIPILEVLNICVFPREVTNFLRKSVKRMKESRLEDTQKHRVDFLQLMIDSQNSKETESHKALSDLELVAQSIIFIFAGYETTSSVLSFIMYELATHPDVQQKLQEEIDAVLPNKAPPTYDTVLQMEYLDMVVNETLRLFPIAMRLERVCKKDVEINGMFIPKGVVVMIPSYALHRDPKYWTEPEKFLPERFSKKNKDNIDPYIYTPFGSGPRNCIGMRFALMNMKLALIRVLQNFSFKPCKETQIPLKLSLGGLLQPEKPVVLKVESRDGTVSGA
Procedure: as §1
CYPs time-dependent inhibition: Kobs=KinactI/KI+I

[4] = biological target: T1, CYP2C19; test: CYP2C19 inhibition in HLMs, S-mephenytoin 4-hydroxylation probe reaction; settings: 100 μM ECH, p < 0.001 vs Control
Procedure: as §2
(§4) The quantification for the corresponding metabolites was performed using a validated single LC/MS/MS run at an Ultimate 3000 HPLC system and a TSQ Quantis™ triple quadrupole mass spectrometer equipped with a heated electrospray ionization (ESI) source (Thermo Fisher, USA). […]
(§5) The relative enzyme activity was observed by High-Performance Liquid Chromatography (HPLC)-Mass Spectrometry (MS). IC50 values were calculated by Graphpad Prism 7.

[5] = biological target: T4, CYP2E1 (Homo sapiens, UniProt P05181); test: Inhibition kinetics of CYP2E1 in HLMs (Lineweaver-Burk plots)
T4 construct: tissue PrimeTox M10000.201800; host or cells: pooled human liver microsomes (50 donors)
T4 sequence (P05181 whole entry): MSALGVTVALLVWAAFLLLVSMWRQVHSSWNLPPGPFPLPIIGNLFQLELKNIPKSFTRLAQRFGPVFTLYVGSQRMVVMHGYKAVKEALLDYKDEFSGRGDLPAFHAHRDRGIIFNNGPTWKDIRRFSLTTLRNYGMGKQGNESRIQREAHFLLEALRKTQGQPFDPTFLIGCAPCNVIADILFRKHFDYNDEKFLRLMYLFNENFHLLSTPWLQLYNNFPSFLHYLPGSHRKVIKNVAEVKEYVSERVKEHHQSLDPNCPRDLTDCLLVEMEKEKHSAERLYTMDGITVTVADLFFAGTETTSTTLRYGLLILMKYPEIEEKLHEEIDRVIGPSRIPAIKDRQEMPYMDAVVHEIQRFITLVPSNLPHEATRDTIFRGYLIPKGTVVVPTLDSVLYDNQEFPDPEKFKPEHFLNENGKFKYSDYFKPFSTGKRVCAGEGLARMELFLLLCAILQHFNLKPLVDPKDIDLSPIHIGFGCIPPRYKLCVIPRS
From the text: (§6) A one enzyme Michaelis Menten model with competitive substrate inhibition: V=VmaxS/Km1+I/KI+Sa
(§7) Michaelis-Menten model with uncompetitive substrate inhibition: V=VmaxS/Km+S1+I/KIKi

[6] = biological target: T5, CYP2A6 (Homo sapiens, UniProt P11509); test: CYP2A6 inhibition in HLMs, coumarin 7-hydroxylation probe reaction; settings: HLM; even in 100 μM concentrations
T5 construct: tissue PrimeTox M10000.201800; host or cells: pooled human liver microsomes (50 donors)
T5 sequence (P11509 whole entry): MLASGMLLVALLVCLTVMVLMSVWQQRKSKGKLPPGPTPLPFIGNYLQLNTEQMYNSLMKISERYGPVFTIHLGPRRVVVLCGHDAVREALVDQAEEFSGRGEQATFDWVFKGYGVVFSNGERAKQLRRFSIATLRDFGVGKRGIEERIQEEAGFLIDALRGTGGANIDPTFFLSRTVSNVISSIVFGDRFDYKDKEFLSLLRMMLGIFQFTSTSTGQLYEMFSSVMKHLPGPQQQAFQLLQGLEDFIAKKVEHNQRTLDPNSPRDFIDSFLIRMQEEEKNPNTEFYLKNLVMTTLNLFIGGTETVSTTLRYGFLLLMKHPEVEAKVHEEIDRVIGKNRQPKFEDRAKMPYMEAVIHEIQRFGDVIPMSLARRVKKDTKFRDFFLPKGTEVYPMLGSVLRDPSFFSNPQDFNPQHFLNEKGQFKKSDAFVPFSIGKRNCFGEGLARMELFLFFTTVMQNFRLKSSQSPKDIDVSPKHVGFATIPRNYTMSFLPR
Procedure: as §2, §3

[7] = biological target: T6, CYP2C9 (Homo sapiens, UniProt P11712); test: CYP2C9 inhibition in HLMs, diclofenac 4′-hydroxylation probe reaction; settings: HLM; even in 100 μM concentrations
T6 construct: Phenotyping experiments were conducted by probe reactions of eight HLMs CYPs; tissue PrimeTox M10000.201800; host or cells: pooled human liver microsomes (50 donors)
T6 sequence (P11712 whole entry): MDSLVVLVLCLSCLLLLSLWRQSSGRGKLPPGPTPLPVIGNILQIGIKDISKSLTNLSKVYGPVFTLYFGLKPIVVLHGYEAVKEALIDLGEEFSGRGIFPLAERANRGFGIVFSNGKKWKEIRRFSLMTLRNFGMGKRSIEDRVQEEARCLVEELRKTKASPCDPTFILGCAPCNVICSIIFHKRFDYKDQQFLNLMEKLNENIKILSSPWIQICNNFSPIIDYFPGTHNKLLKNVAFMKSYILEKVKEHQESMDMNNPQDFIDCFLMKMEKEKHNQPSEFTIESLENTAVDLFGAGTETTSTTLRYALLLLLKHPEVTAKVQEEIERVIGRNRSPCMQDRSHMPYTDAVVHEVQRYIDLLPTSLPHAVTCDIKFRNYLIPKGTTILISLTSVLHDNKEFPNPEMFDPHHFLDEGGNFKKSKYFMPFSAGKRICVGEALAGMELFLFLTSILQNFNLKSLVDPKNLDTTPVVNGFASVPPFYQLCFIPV
Procedure: as §2, §3

[8] = biological target: T4, CYP2E1; test: CYP2E1 inhibition in HLMs, chlorzoxazone 6-hydroxylation probe reaction; settings: 100 μM ECH, p < 0.001 vs Control
Procedure: as §2, §4, §5

[9] = biological target: T4, CYP2E1; test: Assessment of time-dependent inhibition of CYP2E1 in HLMs; settings: 20 μM ECH; incubation 0-30 min
Procedure: as §1

[10] = biological target: T1, CYP2C19; test: Inhibition kinetics of CYP2C19 in HLMs (Lineweaver-Burk plots)
From the text: as §6, §7

[11] = biological target: T3, CYP3A4; test: CYP3A4 inhibition in HLMs, testosterone 6β-hydroxylation probe reaction; settings: 100 μM ECH, p < 0.001 vs Control
Procedure: as §2, §4, §5

[12] = pre-incubation 0-30 min, ECH 0-50 μM, estimated from curve fitting of Kobs

T1 sequence (P33261 whole entry): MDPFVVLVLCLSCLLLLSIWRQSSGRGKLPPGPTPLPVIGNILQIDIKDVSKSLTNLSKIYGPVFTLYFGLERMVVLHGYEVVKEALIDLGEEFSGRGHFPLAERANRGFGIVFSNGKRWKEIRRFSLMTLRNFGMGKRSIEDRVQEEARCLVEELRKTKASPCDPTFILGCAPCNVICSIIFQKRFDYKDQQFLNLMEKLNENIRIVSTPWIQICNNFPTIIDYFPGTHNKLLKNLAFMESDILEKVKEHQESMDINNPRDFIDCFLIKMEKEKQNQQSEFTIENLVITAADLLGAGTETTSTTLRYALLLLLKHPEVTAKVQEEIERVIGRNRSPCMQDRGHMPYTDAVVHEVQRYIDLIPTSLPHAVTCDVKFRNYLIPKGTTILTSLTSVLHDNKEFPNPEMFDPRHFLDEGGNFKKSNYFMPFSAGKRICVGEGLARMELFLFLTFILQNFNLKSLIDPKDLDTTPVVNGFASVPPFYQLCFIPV

## Echinacoside
[1]
  time dependence of CYP2C19 inhibition: time-independent
[2]
  inhibition of CYP2D6: no significant inhibition
[3]; 50 μM ECH, incubation 0-30 min
  time dependence of CYP3A4 inhibition: time-dependent
[3]; [12]
  KI (time-dependent inhibition of CYP3A4): 6.63 µM
  Kinact (time-dependent inhibition of CYP3A4): 0.066 min^− 1
[4]
  effect on relative activity of CYP2C19: significant decrease
[5]
  α value for CYP2E1: not 1
[5]; Lineweaver-Burk plots
  mode of inhibition of CYP2E1: mixed type
[6]
  inhibition of CYP2A6: no significant inhibition
[7]
  inhibition of CYP2C9: no significant inhibition
[8]
  effect on relative activity of CYP2E1: significant decrease
[9]
  time dependence of CYP2E1 inhibition: time-independent
[10]
  mode of inhibition of CYP2C19: competitive type
[11]
  effect on relative activity of CYP3A4: significant decrease
